# How the values were obtained:
# [1] = test system: differentiated L6-myotubes; assay: cAMP production relative to isoprenaline (Biological example 2 of WO 2019/053427); format: cell-based; settings: 0.25 h, compound at 10 μM, activity relative to isoproterenol at 10 μM
# From the text: For example, the level of cAMP production induced by a given compound can be determined by reference to the amount induced by a defined concentration of that compound relative to that induced by the same concentration of a reference compound, such as isoprenaline, using techniques known to those skilled in the art (e.g. following the protocol as described in the biological examples provided in WO 2019/053427, i.e. in cells, such as differentiated L6-myotubes, having been stimulated with isoprenaline or the compound with a final concentration of 1×10^−5 M, for 15 min in stimulation buffer, such as HBSS supplemented with 1% BSA, 5 mM HEPES and 1 mM IBMX, at pH 7.4).
# (§1) Compounds described in publications referenced and incorporated herein were screened in accordance with the procedures outlined in Biological example 1 and Biological example 2 of WO 2019/053427.
# [2] = test system: differentiated L6-myotubes; assay: Glucose uptake screen (Biological example 1 of WO 2019/053427); format: cell-based; settings: compound at 10 μM, activity relative to isoproterenol at 10 μM, read-out: Biological example 1 of WO 2019/053427 (GU)
# Protocol: as §1
# L6-myoblasts were grown in Dulbecco's Modified Eagle's Medium (DMEM) containing 1 g/L glucose supplemented with 10% fetal bovine serum (FBS), 2 mM L-glutamine, 50 U/mL penicillin, […] streptomycin and 10 mM HEPES. Cells were plated at 1x 10^5 cells per mL in 24-well plates. After reaching 90% confluence the cells were grown in medium containing 2% FBS for 7 days where upon cells differentiated into myotubes. The differentiated L6-myotubes were serum-starved overnight in medium containing 0.5% fatty-acid free BSA and stimulated with Compound A at a final concentration of 1×10^−5 M in the presence of the selective β2-adrenergic receptor antagonist ICI-118551. After 1 h 40 min the cells were washed with warm, glucose free medium twice and another portion of agonist was added to the glucose free medium. After another 20 min of incubation the cells were exposed to 50 nM ^3H-2-deoxyglucose for 10 min before washed in ice cold glucose free medium three times and lysed in 400 µl/well 0.2 M NaOH for 1 h at 60° C. The cell lysate was mixed with 4 ml scintillation buffer (Emulsifier Safe, Perkin Elmer) and the radioactivity was detected in a P-counter (Tri-Carb 4810TR, Perkin Elmer).
Structure (SMILES),Emax at 10 µM [1] [%],Emax at 10 µM [2] [%]
"CCCC(C)NC(C)C(O)c1ccc(O)cc1 (stereo not shown) [Compound 13, 1-(p-hydroxyphenyl)-2-(1-methylbutylamino)-1-propanol]",< 25,50 to 75
"CCCCNCC(O)c1cc(O)cc(O)c1 (stereo not shown) [Compound 26, 5-[2-(butylamino)-1-hydroxyethyl]resorcinol]",< 25,50 to 75
"CO[C@H]1CC[C@H](CCCNC[C@H](O)c2cncc(F)c2)CC1 [Compound 261, (R)-1-(5-fluoro-3-pyridyl)-2-{3-[(1r,4S)-4-methoxycyclohexyl]propyl-amino}-1-ethanol]",< 25,< 25
"CCCC(C)NCC(O)c1ccc(Cl)c(O)c1 (stereo not shown) [Compound 35, 1-(4-chloro-3-hydroxyphenyl)-2-(1-methylbutylamino)-1-ethanol]",< 25,> 75
"CC1(C)CCC[C@@H]([C@@H](O)c2cccc(F)c2)N1 [Compound 191, (S)-[(S)-6,6-dimethyl-2-piperidyl](m-fluorophenyl)methanol]",< 25,25 to 50
"O[C@@H](CNC1(C(F)(F)F)CC1)c1cccc(F)c1 [Compound 118, (R)-1-(m-fluorophenyl)-2-[1-(trifluoromethyl)cyclopro-pylamino]-1-ethanol]",< 25,50 to 75
"CCCCNC[C@H](O)c1cccc(N)c1F [Compound 90, (R)-1-(3-amino-2-fluorophenyl)-2-(butylamino)-1-ethanol]",< 25,50 to 75
"CCC[C@H]1CCC[C@H]([C@H](O)c2cc(F)cc(F)c2)N1 [Compound 68, (R)-[(2R,6S)-6-propyl-2-piperidyl](3,5-difluorophenyl)methanol]",< 25,50 to 75
"CC(C)(C)NC[C@H](O)c1cccc(C#N)n1 [Compound 387, 6-[(S)-2-(tert-butylamino)-1-hydroxyethyl]-2-pyridinecarbonitrile]",25 to 50,> 75
"CCCC(C)NCC(O)c1ccc(O)c(Cl)c1 (stereo not shown) [Compound 19, 1-(3-chloro-4-hydroxyphenyl)-2-(1-methylbutylamino)-1-ethanol]",< 25,25 to 50
"CC(C)(NC[C@H](O)c1cncc(F)c1)[C@H]1CC[C@@H](OCc2ccccc2)CC1 [Compound 282, (R)-1-(5-fluoro-3-pyridyl)-2-{1-methyl-1-[(1s,4S)-4-(benzyloxy)cylcohexyl]eth-ylamino}-1-ethanol]",< 25,50 to 75
"CS(=O)(=O)N[C@H]1CC[C@H](CNC[C@H](O)c2cncc(F)c2)CC1 [Compound 313, (R)-1-(5-fluoro-3-pyridyl)-2-({[(1r,4R)-4-(mesylamino)cyclohexyl]methyl}amino)-1-ethanol]",< 25,25 to 50
"CC1(C)C[C@@H]([C@@H](O)c2cccc(F)c2)N1 [Compound 199, (S)-[(S)-4,4-dimethyl-2-azetidinyl](m-fluorophenyl)methanol]",< 25,25 to 50
"CC1(C)C[C@H]([C@@H](O)c2cncc(F)c2)N1 [Compound 217, (S)-[(R)-4,4-dimethyl-2-azetidinyl](5-fluoro-3-pyridyl)methano]",< 25,25 to 50
"O[C@@H](c1cccc(F)c1)[C@H]1CC[C@H](Cc2ccc(Cl)cc2)N1 [Compound 394, (S)-{(2R,5R)-5-[(p-chlorophenyl)methyl]-2-pyrrolidinyl}(m-fluorophenyl)methanol]",< 25,50 to 75
"COc1ccc(C[C@H]2CC[C@H]([C@H](O)c3cncc(F)c3)N2)cc1 [Compound 379, (R)-{(2R,5R)-5-[(p-methoxyphenyl)methyl]-2-pyrrolidinyl}(5-fluoro-3-pyridyl)methanol]",< 25,> 75
"O[C@@H](CNC[C@H]1CC[C@@H](OCc2ccccc2)CC1)c1cncc(F)c1 [Compound 263, (R)-1-(5-fluoro-3-pyridyl)-2-({[(1s,4S)-4-(benzyloxy)cyclohexyl]methyl}amino)-1-ethanol]",< 25,> 75
"C[C@H]1CC[C@@H]([C@H](O)c2ccccc2)N1 (racemic) [Compound 38, Racemic mixture of (R)-[(2S,5S)-5-methyl-2-pyrrolidinyl]phenylmeth-anol and (S)-[(2R,5R)-5-methyl-2-pyrrolidinyl]phenylmeth-anol]",< 25,25 to 50
"CCS(=O)(=O)N[C@H]1CC[C@@H](CC(C)(C)NC[C@H](O)c2cccc(F)c2)CC1 [Compound 524, (R)-2-{1,1-dimethyl-2-[(1s,4S)-4-(ethylsulfonylamino)cyclohexyl]ethylamino}-1-(m-fluorophenyl)-1-ethanol]",< 25,50 to 75
"CO[C@H]1CC[C@@H](C(C)(C)NC[C@H](O)c2cncc(F)c2)CC1 [Compound 252, (R)-1-(5-fluoro-3-pyridyl)-2-{1-methyl-1-[(1s,4S)-4-methoxycyclohexyl]ethyl-amino}-1-ethanol]",< 25,< 25
"CCC[C@@H]1CCC[C@H]([C@@H](O)c2cccc(O)c2)N1 [Compound 137, (S)-[(2R,6R)-6-propyl-2-piperidyl](m-hydroxyphenyl)methanol]",< 25,25 to 50
"CCCCNCC(O)c1ccc(=O)[nH]c1 (stereo not shown) [Compound 63, 5-[2-(butylamino)-1-hydroxyethyl]-2(1H)-pyridinone]",< 25,25 to 50
"CCCCNC[C@H](O)c1ccc(F)cc1O [Compound 81, (R)-2-(butylamino)-1-(4-fluoro-2-hydroxyphenyl)-1-ethanol]",< 25,50 to 75
"O[C@H](c1cccc(F)c1)C12CCC(COCc3ccc(Cl)cc3)(CC1)N2 [Compound 396, (R)-(4-{[(p-chlorophenyl)methoxy]methyl}-7-azabicyclo[2.2.1]hept-1-yl)(m-fluorophenyl)methanol]",< 25,> 75
"CC(C)(C[C@H]1CC[C@H](NS(=O)(=O)C(F)(F)F)CC1)NC[C@H](O)c1cccc(F)c1 [Compound 458, (R)-2-{1,1-dimethyl-2-[(1r,4R)-4-(trifluoromesylamino)cyclohexyl]ethylamino}-1-(m-fluorophenyl)-1-ethanol]",< 25,> 75
CC(C)(C[C@H]1CC[C@@H](NC(=O)OC(C)(C)C)CC1)NC[C@H](O)c1cncc(F)c1 [Compound 469],< 25,> 75
"CC(C)(C)NC[C@H](O)c1cccc(N)c1F [Compound 91, (R)-1-(3-amino-2-fluorophenyl)-2-(tert-butylamino)-1-ethanol]",25 to 50,> 75
"CCCC12CCC([C@H](O)c3cccc(F)c3)(CC1)N2 [Compound 183, (R)-(m-fluorophenyl)(4-propyl-7-azabicyclo[2.2.1]hept-1-yl)methanol]",25 to 50,50 to 75
"CC1(C)CCC[C@H]([C@H](O)c2ccccc2F)N1 [Compound 177, (R)-[(R)-6,6-dimethyl-2-piperidyl](o-fluorophenyl)methanol]",< 25,50 to 75
